Test results as given in PMC12568586, “Mass spectrometry-guided discovery of novel GCPII inhibitor scaffolds” (Frontiers in Pharmacology, 2025).
Values joined by “and” are separate entries in the source; they are usually repeats but may differ in a detail not shown here. Equal entries are not always repeated. Where two headings read alike, the source gives them in different places.

Key:
GCPII [1] = settings: prior art compound, value given when selected for assay validation; no reference given; cited from earlier work
GCPII [2] = target: T1, GCPII (Homo sapiens, UniProt Q04609); test: dual-stream LC/MS/MS GCPII substrate cleavage (inhibition) assay; assay type: biochemical; design: purchased Sino Biological; settings: for Max resp (100uM) / HTS max resp: in % (unit assumed); for inhibition at 10 µM: read-out: inhibition relative to the DMSO and no enzyme controls; for IC50: follow up screening, triplicate IC50 values ± standard deviation, read-out: IC50 (mass spec assay)
Protocol: The novel high-throughput dual-stream liquid chromatography–tandem mass spectrometry method used to screen for this study was recently published ([Hoxie et al., 2024]). Briefly, a 5 μL solution containing recombinant GCPII (SinoBio) in Tris–HCl (pH 7.4) with 1 mM CoCl2 was dispensed using a BioRAPTR 2.0 Flying Reagent Dispenser (Let’s Go Robotics) into 384-well assay plates (Greiner 784,201) pre-spotted with 100 nL of compound in DMSO using an Echo 655 Acoustic Liquid Handler (Beckman). Enzyme and compound were incubated for 15 min prior to the addition of 5 μL of ^13C5 ^15N-acetylaspartylglutamate (Aldrich). After 30 min s at room temperature, reactions were quenched using 0.2 μM D3-glutamate in LC/MS-grade acetonitrile and 0.1% formic acid. A 2-min liquid chromatography method utilizing a 2.1 × 30 mm BEH Amide HILIC column (Waters) was used to resolve glutamate from NAA and NAAG. A Sciex 6,500+ Q-Trap mass spectrometer was utilized for MS/MS quantification of released glutamate in the presence of compound. The integrated peak areas were normalized against the d3-glutamate internal standard, and then degree of inhibition was calculated using replicates containing no enzyme and enzyme with equivalent volumes of DMSO. Compounds were initially screened in a 10 μL reaction volume with 10 μM (final) compound dissolved in DMSO. […] To further increase throughput and the efficiency of screening, LC/MS analysis of libraries was conducted in dual-stream mode on an LS-1 autosampler (Sound Analytics).

[3] = target: T2, recombinant human (rh) GCPII (Homo sapiens, UniProt Q04609); test: nanoDSF thermal shift assay; assay type: binding; settings: for Tm of GCPII in the presence of compound: compound at 250 μM, DMSO Tm 78.93 °C; for shift in Tm (Δ): compound at 25 μM, vs DMSO
T2 construct: purchased Sino Biological
Protocol: nanoDSF experiments were performed to assess the thermal stability of GCPII in the presence of various inhibitors. Protein samples were prepared at a concentration of 0.15 mg/mL in 50 mM Tris-HCl (pH 7.4), 1 mM CoCl2, 150 mM NaCl, and 0.01% Tween-20. Samples were incubated at 25 °C for 30 min prior to measurement with shaking at 1,000 rpm. Thermal unfolding was monitored using a Prometheus Panta nanoDSF instrument using standard capillaries (NanoTemper Technologies). The intrinsic fluorescence at 350 nm and 330 nm was recorded as a function of temperature, and the fluorescence ratio (350/330 nm) and its first derivative were used to track protein unfolding. A thermal gradient from 25 °C to 95 °C was applied at a rate of 0.5 °C per minute. The melting temperature (Tm) was determined from the global maximum of the first derivative of the fluorescence ratio curve. Each condition was tested in at least three independent replicates, and data was analyzed using PR. ThermControl software (NanoTemper Technologies). One-way ANOVA with multiple comparisons to the DMSO vehicle control group was used to determine significant shifts from the control thermal unfolding profile.

human rGCPII = target: T3, human rGCPII (Homo sapiens, UniProt Q04609); test: orthogonal radioenzymatic GCPII inhibition assay (3H-NAAG); assay type: biochemical; settings: NAA[3H]G 30 nM, GCPII 40 pM, 37 °C, 25 min
T3 construct: purchased Sino Biological
Protocol: Radioenzymatic assay using ^3H-NAAG was performed as previously described ([Barinka et al., 2002]). Briefly, a 50 μL reaction mixture containing NAA [^3H]G (30 nM, 49 μCi/nmol) and GCPII (40 pM), in Tris-HCl (pH 7.4, 40 mM) with 1 mM CoCl2 was incubated at 37 °C for 25 min and stopped with 50 μL ice-cold sodium phosphate buffer (pH 7.5, 0.1 M). AG1X8 ion-exchange resin was used to separate cleaved [^3H]glutamate, and the flowthrough was transferred to solid scintillator-coated 96-well plates (Packard) and allowed to dry. Radioactivity was measured by a Topcount NXT from Packard. Each compound was run in duplicate, and 6–8-point dose-response curves were generated.

GCPII [4] = target: T1, GCPII; test: mode of inhibition study (radioenzymatic assay, varied NAA[3H]G, Michaelis-Menten analysis); settings: for Ki: Ki (secondary plot Km app/Vmax vs [inhibitor], −X intercept), 40 pM GCPII; for mode of inhibition: NAAG as substrate
Protocol: The mode of inhibition was also determined as previously described following the same procedure as the radioenzymatic-based IC50 assay but with modification of the concentrations of NAA [^3H]G. ([Barinka et al., 2002]). […] A Michaelis-Menten kinetics analysis was done to determine the Km and Vmax at each inhibitor concentration.

[5] = pharmacokinetic and brain penetration study in mice; assay type: in vivo; settings: 100 mg/kg IP, C57BL/6 mice
Protocol: Pharmacokinetic studies in mice were approved by the Animal Care and Use Committee at Johns Hopkins University. Male C57BL/6 mice (25–30 g) were housed under a 12-h light-dark cycle with ad libitum access to food and water. Cefsulodin was administered intraperitoneally (IP) at a dosage of 100 mg/kg prepared freshly (5% DMSO and 95% HEPES saline v/v) with a dosing volume of 10 mL/kg. Blood and brain tissue samples were collected at 0.083–3 h post-administration (n = 3 per time point). Blood was obtained via cardiac puncture, and plasma was separated by low-speed centrifugation at 3,000 × g for 15 min and stored at −80 °C. Brain tissues were harvested, and immediately frozen in liquid nitrogen, and stored at −80 °C until analyses.
As cefsulodin is known to be unstable, plasma and brain tissue samples were prepared with the addition of 2% formic acid in water to adjust the pH to 5 ([Lecaillon et al., 1982]). For quantification of cefsulodin, plasma samples were diluted 10-fold with blank plasma, and a total of 40 μL of plasma was extracted using a protein precipitation method by adding methanol containing the internal standard (diclofenac, 1 μM). The mixture was vortex-mixed for 30 s and centrifuged at 14,000 rpm for 5 min at 4 °C. Brain tissues were homogenized in methanol at a 1:5 (w/v) ratio. A 50 μL aliquot of the homogenate was precipitated with methanol containing the internal standard, vortex-mixed, and centrifuged at 14,000 rpm for 5 min at 4 °C. A 150 μL aliquot of the supernatant was transferred to a polypropylene vial sealed with a Teflon cap and analyzed by liquid chromatography with tandem mass spectrometric methods (LC-MS/MS) as described below.
Cefsulodin concentrations in mouse plasma and brain were measured using a Shimadzu Nexera X2 LC-40D system (Shimadzu Corporation, Kyoto, Japan) coupled with an API 6500 triple quadrupole mass spectrometer (AB Sciex, Redwood City, CA, United States). […] Quantitation was performed in multiple reaction monitoring (MRM) mode using cefsulodin (533.03 > 123.03) and diclofenac as the internal standard (296.13 > 215.03) ([Zhou et al., 2024]; [Park et al., 2024]). Calibration curves were constructed over the range of 0.01–100 nmol/mL or nmol/g for plasma and brain, respectively.
Plasma concentrations (nmol/mL) and brain concentrations (nmol/g) were determined, and mean concentration-time profiles were plotted for pharmacokinetic analysis. Non-compartmental analysis was performed using the Phoenix WinNonlin software version 8.4 (Certara United States, Inc., Princeton, NJ) to calculate pharmacokinetic parameters, including the maximum concentration (Cmax), time to Cmax (Tmax), and area under the concentration-time curve (AUC0–t).

[6] = maximum response at 100uM, dose response
[7] = library screening, seven-point dose response, read-out: AC50

T3 sequence (Q04609 whole entry): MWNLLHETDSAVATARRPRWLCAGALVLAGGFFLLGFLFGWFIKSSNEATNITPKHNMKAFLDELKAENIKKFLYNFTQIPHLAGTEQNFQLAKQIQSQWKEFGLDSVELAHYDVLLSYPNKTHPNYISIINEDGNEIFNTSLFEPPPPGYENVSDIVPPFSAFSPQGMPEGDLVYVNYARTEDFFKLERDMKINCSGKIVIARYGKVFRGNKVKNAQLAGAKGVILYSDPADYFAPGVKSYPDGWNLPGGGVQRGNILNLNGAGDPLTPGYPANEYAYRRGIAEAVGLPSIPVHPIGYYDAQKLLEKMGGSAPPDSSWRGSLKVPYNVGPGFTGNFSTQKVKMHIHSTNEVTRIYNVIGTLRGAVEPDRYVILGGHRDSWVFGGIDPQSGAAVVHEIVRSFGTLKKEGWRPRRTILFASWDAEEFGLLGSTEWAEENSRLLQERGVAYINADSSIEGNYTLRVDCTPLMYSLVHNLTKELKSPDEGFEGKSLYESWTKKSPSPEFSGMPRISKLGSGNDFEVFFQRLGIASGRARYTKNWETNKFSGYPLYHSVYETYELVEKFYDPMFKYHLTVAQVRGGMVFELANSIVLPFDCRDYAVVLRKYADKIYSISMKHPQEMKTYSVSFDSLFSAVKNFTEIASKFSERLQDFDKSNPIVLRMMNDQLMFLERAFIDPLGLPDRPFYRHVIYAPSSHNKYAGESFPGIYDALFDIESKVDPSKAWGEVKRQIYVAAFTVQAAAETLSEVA
T1 sequence (Q04609 whole entry): as above
T2 sequence (Q04609 whole entry): as above

| SMILES | Max resp (100uM) (GCPII [2]; [6]) | HTS max resp (GCPII [2]; primary high-throughput screen) | inhibition at 10 µM (GCPII [2]; single point screen at 10 µM) | IC50 (human rGCPII) | IC50 (GCPII [2]) | further results |
| --- | --- | --- | --- | --- | --- | --- |
| O=C(O)CCC(CP(=O)(O)O)C(=O)O (stereo not shown) [2-PMPA, 2-(phosphonomethyl)pentanedioic acid] | −98.19 | −100.00 | ≥ 50% |  |  | IC50 (GCPII [1]): […]; Tm of GCPII in the presence of compound [3]: 90.70 °C |
| O=S(=O)(O)c1ccc2c(/N=N/c3ccc(S(=O)(=O)O)c4ccccc34)c(O)c(S(=O)(=O)O)cc2c1 [Amaranth] | −101.68 | −101.93 |  | 300 ± 10 nM | 1500 ± 300 nM | AC50 (GCPII [2]; [7]): 2500 nM; Ki (GCPII [4]): 1100 ± 60 nM; mode of inhibition (GCPII [4]): non-competitive inhibition; shift in Tm (Δ) [3]: 0.76 °C |
| CO[C@@]1(NC(=O)C2SC(=C(C(N)=O)C(=O)O)S2)C(=O)N2C(C(=O)O)=C(CSc3nnnn3C)CS[C@@H]21 (stereo partly shown) [Cefotetan] |  |  |  | 2000 ± 1000 nM | 9700 ± 3000 nM |  |
| CC1(C)C(/C=C/C=C/C=C/C=C2\N(CCCCS(=O)(=O)O)c3ccc4ccccc4c3C2(C)C)=[N+](CCCCS(=O)(=O)[O-])c2ccc3ccccc3c21 [Indocyanine green] |  |  |  | 1900 ± 300 nM | 11000 ± 200 nM |  |
| N[C@@H](Cn1oc(=O)[nH]c1=O)C(=O)O [L-Quisqualic acid] |  |  |  |  |  | IC50 (GCPII [1]): 10000 nM; AC50 (GCPII [2]): 7900 nM; HTS max resp (GCPII [2]): −93.07; Max resp (100uM) (GCPII [2]): −91.35; inhibition at 10 µM (GCPII [2]): ≥ 50% |
| O=C1OC(c2ccc(O)c(S(=O)(=O)O)c2)(c2ccc(O)c(S(=O)(=O)O)c2)c2c(Br)c(Br)c(Br)c(Br)c21 [Sulfobromophthalein] |  |  |  | 230 ± 100 nM | 400 ± 100 nM |  |
| Cc1cc(-c2ccc(/N=N/c3c(S(=O)(=O)O)cc4cc(S(=O)(=O)O)cc(N)c4c3O)c(C)c2)ccc1/N=N/c1c(S(=O)(=O)O)cc2cc(S(=O)(=O)O)cc(N)c2c1O [Trypan blue] |  |  |  | 210 ± 50 nM | 2100 ± 400 nM |  |

The next lines start with results.

| Max resp (100uM) (GCPII [2]; [6]) | HTS max resp (GCPII [2]; primary high-throughput screen) | inhibition at 10 µM (GCPII [2]; single point screen at 10 µM) | IC50 (human rGCPII) | IC50 (GCPII [2]) | SMILES | further results |
| --- | --- | --- | --- | --- | --- | --- |
| −96.75 | −100.00 | ≥ 50% |  |  | O=C(O)CCC(CCCS)C(=O)O (stereo not shown) [2-MPPA, 2-(3-mercaptopropyl)pentanedioic acid] | IC50 (GCPII [1]): 90 nM; Tm of GCPII in the presence of compound [3]: 79.25 °C |
|  |  |  | 4900 ± 2000 nM | 32000 ± 2000 nM | O=C(O)C1=C(CSc2nnnn2CS(=O)(=O)O)CS[C@@H]2[C@H](NC(=O)[C@H](O)c3ccccc3)C(=O)N12 [Cefonicid sodium] |  |
|  |  |  | 14000 ± 6000 nM | 29000 ± 400 nM | NCc1ccccc1CC(=O)N[C@@H]1C(=O)N2C(C(=O)O)=C(CSc3nnnn3CC(=O)O)CS[C@H]12 [Ceforanide] |  |
| −98.19 | −92.18 |  | 2000 ± 100 nM | 3600 ± 300 nM | NC(=O)c1cc[n+](CC2=C(C(=O)O)N3C(=O)[C@@H](NC(=O)[C@@H](c4ccccc4)S(=O)(=O)[O-])[C@H]3SC2)cc1 [Cefsulodin] | brain penetration index [5]: low; brain Cmax ([5]; brain): 4 µM and 4.9 µM; brain exposure (AUC) ([5]; brain): 4.36 ± 1.12 nmol·h/g; time of brain Cmax ([5]; brain, post-dose): 30 min; AC50 (GCPII [2]; [7]): 3900 nM; Ki (GCPII [4]): 2500 nM and 2000 nM; mode of inhibition (GCPII [4]): competitive, active-site inhibition; shift in Tm (Δ) [3]: 0.65 (±0.07) °C |
|  |  | ≥ 50% |  |  | Nc1nc(=O)c2nc(CNc3ccc(C(=O)N[C@@H](CCC(=O)O)C(=O)O)cc3)cnc2[nH]1 [Folic Acid] |  |
|  |  | ≥ 50% |  |  | CN(Cc1cnc2nc(N)nc(N)c2n1)c1ccc(C(=O)N[C@@H](CCC(=O)O)C(=O)O)cc1 [Methotrexate] |  |
